Source: PMC10762078, “Role of UPF1-LIN28A interaction during early differentiation of pluripotent stem cells” (Nature Communications, 2024)
Ends that are not written are not given here.

Columns and labels:
Assay type in all cases: cell-based
[1] = tested on: nonsense-mediated mRNA decay (NMD); assay: NMD reporter mRNA by RT-qPCR in UPF1-depleted HeLa cells with FLAG-LIN28A and CPP-peptides (Supplementary Fig. 5d); details: siUPF1 + FLAG-LIN28A, 2 μM, n = 3
Description: (§1) For CPP-conjugated peptide delivery, HeLa, 293T, and PA-1 cells were incubated with CPP-conjugated peptides or CPP-FITC at 2 μM in DMEM with 10% FBS for 12 h a day before cell harvest. hPSCs were treated with CPP-conjugated peptides at 10 μM in mTeSR Plus Medium, and the peptide-containing medium was changed every day over 10 days. The ROCK inhibitor (Tocris Bioscience, Y-27632) treated-hPSCs were dissociated into single cells using Accutase (Merck, SCR005) and differentiated into ectoderm, mesoderm, and endoderm using the STEMdiff Trilineage Differentiation Kit ([…] Technologies, 05230) following the manufacturer’s protocol. Differentiated cells treated with CPP-conjugated peptides were analysed at 0, 3, and 5 days for ectoderm and endoderm, and at 0, 3, and 4 days for mesoderm. […]
(§2) cDNA was synthesised using RevertAid Reverse Transcriptase (Thermo Fisher Scientific, EP0441) with synthesised random hexamer (Macrogen) for total RNA or stem-loop primers for miRNA. For RT-qPCR reactions, the SensiFAST SYBR No-ROX kit (Meridian Bioscience) was used according to the manufacturer’s protocol. All data analysis and visualisation were conducted using R 3.6.1 [www.r-project.org] or GraphPad Prism 10. RT primers for miRNA and RT-qPCR primer sequences are provided in Supplementary Data 6. […]

[2] = tested on: nonsense-mediated mRNA decay (NMD); assay: NMD reporter mRNA by RT-qPCR in HeLa cells without LIN28A, with CPP-peptides (Supplementary Fig. 5c); details: no LIN28A, 2 μM, n = 5
Description: as §1, §2

[3] = tested on: human fetal neural stem cells (VM-NSCs or CTX-NSCs); assay: H2O2-stressed human fetal neural stem cells: survival and neuronal markers (peer review file); details: compared with CPP-P1
Excerpt: 4. In addition to identifying the differentiation markers, what are the effects of LIN28A-UPF1 interactions on the functional differentiation phenotypes?
We observed that the levels of stem cell markers, POU5F1 (OCT4) and NANOG, were reduced when UPF1 and LIN28A interaction was disrupted by the […]
To determine the effects of CPP-P8 during […]
split every 4~6-days. After CPP-P8 treatment, the cell phenotypes treated with CPP-P8 looked more like the spontaneous differentiated cells than the ones treated with CPP-P1 and CPP-P2 (Fig. 6c and Supplementary Fig. 6b in the revised manuscript).
The final experiment to determine the functional phenotypes used treated human fetal neural stem cells (ventral midbrain (VM)-NSCs or cortex (CTX)-NSCs), which was stressed by H2O2, with the peptides (CPP-P1 or P8), and differentiation to neurons was initiated. The immunofluorescence results […]
neuron markers, Tyrosine hydroxylase (TH) and TUJ1 compared with CPP-P1 treatment. We are preparing another manuscript to show the effects of CPP-P8 on neuronal differentiation, we would like […]
We hope our additional experiments have addressed the reviewer’s concern.
Original Manuscript Revised Manuscript
Fig. 1e Supplementary Fig. 6b
(1 picture or pasted object on this page, not shown here)

Sequence	effect on NMD in absence of UPF1 [1]	effect on NMD in absence of LIN28A [2]	cell survival ([3]; DAPI staining)	dopaminergic neuron markers TH and TUJ1 [3]
KKKWCRKKKSSADEKRYRALKRTAERELLMNA [CPP-P8, CPP conjugated to P8]	did not affect NMD in the absence of LIN28A or UPF1	did not affect NMD in the absence of LIN28A		
KKKWCRKKKSSADEKRYRALKRTAERELLMNA [P8]			increased cell survival (DAPI staining)	upregulated dopaminergic
